Two compounds from patent publication US10501805B2, “Methods for determining responsiveness to MEK/ERK inhibitors” (CROWN BIOSCIENCE, INC. (TAICANG), priority 2014, dated 2019) can be followed below.

Format in all cases: cell-based
One assay has as its system panel of 50 cell lines. The assay can be described thus: Sensitivity of cell line panel by gene mutation status. From the text:
We examined the anti-proliferation activity of a MEK inhibitor, trametinib, and an ERK1/2 inhibitor, SCH772984, in a panel of […] (see Table 1).
We divided the 63 cell lines into sensitive, insensitive, and uncertain groups according to their IC50's for SCH772984 and Trametinib, respectively, then detected genes with differential expression or different mutation types between sensitive and insensitive groups. These genes were enriched in several cancer related pathways.
The 63 cell lines were divided into 3 groups (See Table 1): a sensitive group (IC50 values were less than 1), an insensitive group (IC50 values are greater than 10), and an uncertain group (the rest). Accordingly, we got 25 sensitive and 22 insensitive cell lines for SCH772984, and 34 sensitive and 24 insensitive cell lines for Trametinib. Only cell lines with genomic data were used in subsequent analysis. The differentially expressed genes and enriched pathways were analysed using GSEA software, the genes with different mutation types were detected using Fisher's exact test.
29 sensitive and 20 insensitive cell lines have mutation information, and ADAM12, COL14A1, TNN and TP53 were identified by P-value cutoff of 0.01 (See Table 3 and FIG. 1-5).
21 sensitive and 18 insensitive cell lines have mutation information, and ADAM12, PEX5L, TNN and TP53 were identified by P-value cutoff of 0.01 (See Table 3 and FIGS. 6-10).

A further assay relates to LS513. Description: CellTiter-Glo cell viability, IC50 determination. As to conditions: Homo sapiens, LS-513, 72 h; LS513 cell line; 3-day CTG assay; read-out: Absolute IC50. How it is done: (§1) All the cells will be cultured in the media supplemented with 10% FBS except for which are marked specially, in the temperature of 37° C., 5% CO2 and 95% humidity.
(§2) Cell viability is assayed by using CellTiter-Glo® Luminescent Cell Viability Assay Kit (Cat. No.: G7572, Promega. Store at −20° C.). To prepare the CellTiter_Glo Reagent, the CellTiter-Glo Buffer was thawed and equilibrated to room temperature prior to use. For convenience the CellTiter-Glo Buffer may be thawed and stored at room temperature for up to 48 hours prior to use. The lyophilized CellTiter-Glo Substrate is equilibrated to room temperature prior to use. The appropriate volume (100 ml) of CellTiter-Glo Buffer is transferred into the amber bottle containing CellTiter-Glo Substrate to reconstitute the lyophilized enzyme/substrate mixture, which forms the CellTiter-Glo Reagent. In certain cases, the entire liquid volume of the CellTiter-Glo Buffer bottle may be added to the CellTiter-Glo Substrate vial. Mix by gently vortexing, swirling or by inverting the contents to obtain a homogeneous solution. The CellTiter-Glo Substrate should go into solution easily in less than one minute.
(§3) The day before the experiment (Day −1), cells were dissociated during the logarithmic growth period with Cell Disassociation Buffer (Gibco 13151-014) and mixed with appropriate cell media and centrifuge at 1000 rpm for 3 minutes. The cells were re-suspended and counted using Countstar before adjusting cell concentrations to optimized density (i.e. 4.44×10^4 cells/ml) with respective culture medium listed in Table 1 for 3-day CTG assay (The cell density was optimized before actual study; cell density used in the test may vary for different cell lines). 90 μl cell suspensions were added to two 96-well plates (plates A and B) with the final cell density of 4×10^3 cells/well for 3-day CTG assay (the cell density was optimized before actual study; cell density used in the test may vary for different cell lines). The plate A and B group were incubated for overnight in humidified incubator at 37° C. with 5% CO2.
(§4) On Day 0, for plate A group, 10 μl culture medium was added to each well for T0 reading. CellTiter-Glo® Reagent was added at equal volume of cell culture medium present in each well (e.g., add 100 μl of reagent to 100 μl of medium containing cells for a 96-well plate). Contents were mixed for 2 minutes on an orbital shaker to facilitate cell lysis. The plate was allowed to incubate at room temperature for 10 minutes to stabilize luminescent signal. Backseal black sticker was added to the bottom of each plate. Luminescence was recorded using EnVision Multi Label Reader. This formed the basis for T0 value.
(§5) On Day 0, the test articles and positive controls were dissolved at the concentration indicated at Test Article Dilution map. 100× solution in PBS was prepared and then diluted with appropriate culture media (1:10) into 10×working solutions. 10 μl (10×) drug solutions were dispensed in each well (triplicate for each drug concentration) of the plate B group according to plate inoculation map. The test plates were incubated for […] in the humidified incubator at 37° with 5% CO2.
(§6) On Day 3, CellTiter-Glo® Reagent was added at equal volume of cell culture medium present in each well (e.g., add 100 μl of reagent to 100 μl of medium containing cells for a 96-well plate). Contents were mixed for 2 minutes on an orbital shaker to induce cell lysis. The plate was allowed to incubate at room temperature for 10 minutes to stabilize luminescent signal. Backseal black sticker was placed to the bottom of each plate. Luminescence was recorded using EnVision Multi Label Reader.
(§7) In order to calculate IC50s, a dose-response curve was fitted using a nonlinear regression model with a sigmoidal dose response. The formula for calculating surviving rate was shown below; Absolute IC50 is calculated where Y axis set at 50% using GraphPad Prism 5.0. Software. […]

For a further assay, the system named is HCT-8. Description: CellTiter-Glo cell viability, IC50 determination. As to conditions: Homo sapiens, 72 h; HCT-8 cell line; 3-day CTG assay; read-out: Absolute IC50. How it is done:
as §1, §2, §3, §4, §5, §6, §7
In general terms: ATP-based viability assays read luminescence as a measure of living cells.

The next assay deals with NCI-H23. Description: CellTiter-Glo cell viability, IC50 determination. Conditions: Homo sapiens, 72 h; NCI-H23 cell line; 3-day CTG assay; read-out: Absolute IC50. The procedure: as §1, §2, §3, §4, §5, §6, §7
A further assay relates to HT29. Description: CellTiter-Glo cell viability, IC50 determination. Conditions: Homo sapiens, HT-29, 72 h; HT29 cell line; 3-day CTG assay; read-out: Absolute IC50. How it is done: as §1, §2, §3, §4, §5, §6, §7
The subject of the next assay is A549. The assay can be described thus: CellTiter-Glo cell viability, IC50 determination. Conditions: Homo sapiens, 72 h; A549 cell line; 3-day CTG assay; read-out: Absolute IC50. The procedure:
as §1, §2, §3, §4, §5, §6, §7

A further assay relates to MDA-MB-231. Description: CellTiter-Glo cell viability, IC50 determination. Conditions: Homo sapiens, 72 h; MDA-MB-231 cell line; 3-day CTG assay; read-out: Absolute IC50. How it is done:
as §1, §2, §3, §4, §5, §6, §7

The test system of the next assay is NCI-H2009. Description: CellTiter-Glo cell viability, IC50 determination. Conditions: Homo sapiens, 72 h; NCI-H2009 cell line; 3-day CTG assay; read-out: Absolute IC50. How it is done: as §1, §2, §3, §4, §5, §6, §7
For the next assay, the system named is LoVo. The assay can be described thus: CellTiter-Glo cell viability, IC50 determination. As to conditions: Homo sapiens, 72 h; LoVo cell line; 3-day CTG assay; read-out: Absolute IC50. The procedure: as §1, §2, §3, §4, §5, §6, §7
The subject of another assay is PANC-1. Description: CellTiter-Glo cell viability, IC50 determination. As to conditions: Homo sapiens, 72 h; PANC-1 cell line; 3-day CTG assay; read-out: Absolute IC50. The procedure:
as §1, §2, §3, §4, §5, §6, §7

[1] abbreviates: cells harboring mutations in ADAM12 gene.
[2] abbreviates: cells harboring mutations in TNN gene.
[3] abbreviates: cells harboring mutations in TP53 gene.

A word on the IC50: it is the concentration that inhibits the measured activity by half. Consider `CC(=O)Nc1cccc(-n2c(=O)n(C3CC3)c(=O)c3c(Nc4ccc(I)cc4F)n(C)c(=O)c(C)c32)c1` [Trametinib, N-(3-{3-Cyclopropyl-5-[(2-fluoro-4-iodophenyl)amino]-6,8-dimethyl-2,4,7-trioxo-3,4,6,7-tetrahydropyrido[4,3-d]pyrimidin-1(2H)-yl}phenyl)acetamide], for which the “sensitivity to inhibitor in cells harboring mutations” value in the assay on panel of 50 cell lines (cells harboring multiple mutations in ADAM12, COL14A1, TNN, and TP53 gene) was “increased sensitivity”; in the assay with panel of 50 cell lines (setting [1]), “increased sensitivity”; with panel of 50 cell lines (cells harboring mutations in COL14A1 gene), “decreased sensitivity”; in the assay on panel of 50 cell lines (setting [2]) it was “increased sensitivity”; with panel of 50 cell lines (setting [3]) it was “increased sensitivity”. The IC50 in the assay with LS513 amounted to 10 nM; with HCT-8, 50 nM; in the assay on NCI-H23 it was 300 nM; with HT29, 10 nM; in the assay on A549, 240 nM; in the assay with MDA-MB-231, 24000 nM. For the same compound, the IC50 came to 410 nM in the assay with NCI-H2009, 110 nM in the assay on LoVo and 330000 nM in the assay with PANC-1.
On to `O=C(Nc1ccc2[nH]nc(-c3ccncc3)c2c1)[C@@H]1CCN(CC(=O)N2CCN(c3ccc(-c4ncccn4)cc3)CC2)C1` [SCH772984, (R)-1-(2-oxo-2-(4-(4-(pyrimidin-2-yl)phenyl)piperazin-1-yl)ethyl)-N-(3-(pyridin-4-yl)-1H-indazol-5-yl)pyrrolidine-3-carboxamide], for which the “sensitivity to inhibitor in cells harboring mutations” value in the assay with panel of 50 cell lines (cells harboring multiple mutations in ADAM 12, PEX5L, TNN and TP53 gene) was “increased sensitivity”; in the assay on panel of 50 cell lines (setting [1]), “increased sensitivity”; in the assay with panel of 50 cell lines (cells harboring mutations in PEX5L gene) it was “increased sensitivity”; in the assay on panel of 50 cell lines (setting [2]) it was “increased sensitivity”; in the assay on panel of 50 cell lines (setting [3]), “increased sensitivity”. For the same compound, the IC50 stood at 780 nM in the assay with LS513; 1270 nM in the assay on HCT-8; 3690 nM in the assay with NCI-H23; 230 nM in the assay on HT29; 1780 nM in the assay with A549; 32300 nM in the assay on MDA-MB-231. The IC50 in the assay on NCI-H2009 amounted to 4360 nM; in the assay with LoVo it was 410 nM; in the assay on PANC-1, 64300 nM.
